Test results from US20150150765A1, “VOLATILE OIL FOR COSMETICS” (NOF Corporation, priority 2012, published 2015).

Key:
[1] = order of volatility, sample spread on filter paper and dried; format: physicochemical; details: 0.1 g on filter paper of 110 mm diameter; rank by speed to be completely dry (1 = fastest)
Procedure: It is noted that for the order of volatility in Table 1, 0.1 g of each sample was spread on a filter paper of 110 mm in diameter, and the weight was measured after drying for two hours. Ranking was based on the order of the speed that it took the samples to be completely dry and 0 g in weight.

[2] = evaluation of smoothness of hair (MIU friction resistance of hair surface); design: species or system human; details: coefficient of friction of bleached hair, hair untreated with oil = 100%; below 100% = improvement; 20° C., 40% humidity
Procedure: (§1) [Evaluation of Smoothness]
With the volatile oil for hair cosmetics of the present invention, coefficients of friction were measured by the method shown below, and the improvement of smoothness, when applied to hair, was evaluated.
Method of Evaluating Smoothness (Improvement after Treating Bleached Hair with Each Sample)
(Evaluation) MIU (Resistance: μ): Friction resistance of hair surface (Measuring Equipment) Friction tester (from Kato Tech Co., Ltd.) (Measuring Conditions) Measurement environment at 20° C.; 40% of Humidity; Constant temperature and humidity chamber; Number of hair for measurement: ten; Contactor: Silicon rubber; Load: 25 gf (Hair Employed) Bleached healthy human hair that was purchased
(§2) (Applying Various Oils and Preparing Tests)
(§3) (1) One hair is picked out of the bundle of human hair. Each sample is dropped onto an index finger cushion from a syringe, and is blended with a thumb.
(§4) (2) The picked hair is pinched between the index finger and the thumb, and is coated with a sample from its root to the end.
(3) After the sample is coated, excess sample is wiped off with a waste cloth made of paper (Trade Name: Kim Wipes). […]
(Assessment) With the coefficient of friction of hair untreated with oil as 100%, smoothness is evaluated after being treated with each sample. […]

hair tensile strength = details: breaking load of healthy human hair, untreated with oil (blank) = 100%; above 100% = improvement; 25° C.
Procedure: (Measuring Equipment) FUDOH RHEO METER RTC from Rheotech Co., Ltd. (Measuring Condition) Measurement environment: Inside constant temperature chamber at 25° C.
(Hair Employed) Healthy Human Hair
as §2
Beforehand, a bundle of unbleached healthy hair for measurement is placed in a constant temperature chamber for one day.
as §3, §4
(3) After the sample is coated, excess oil is wiped off with a waste cloth made of paper (Trade Name: Kim Wipes).
(4) After ten human hairs are treated with each sample, hair diameter is measured with a diameter.
(5) The hair is fixed with a jag of an equipment, and is given a load by lowering a base onto which the hair is fixed.
(6) The load is recorded when the hair is broken by the load.
(Assessment) With the tensile strength of hair untreated with oil (blank) as 100%, tensile strength was evaluated after being treated with each sample. If there is an improvement in comparison with the blank, the number would be higher than 100%.

[3] = evaluation of smoothness of skin (MIU friction resistance of skin surface); format: in vivo; details: coefficient of friction of skin, inside upper arm, before oil treatment = 100%; below 100% = improvement
Procedure: as §1
With the volatile oil for external preparations for skin of the present invention, coefficients of friction were measured by the following method, and the improvement of smoothness when applied to skin was evaluated.
Method of Evaluating Smoothness (Improvement after Treating Skin with Each Sample)
(Evaluation) MIU (Resistance: μ): Friction resistance of skin surface (Measuring Equipment) Friction tester (from Kato Tech Co., Ltd.) (Measuring Conditions) Measurement environment at 20° C.; 40% of Humidity; Constant temperature and humidity chamber; Measurement site: Inside upper arm; Contactor: Silicon rubber; Load: 25 gf
as §2
(§5) (1) The measurement site of a subject is washed with neutral detergent and tap water and then dried. The subject goes in the constant temperature and humidity chamber 30 min. before measurement to allow the measurement site to get used to the environment inside the chamber.
(2) Coefficients of friction at sites to be applied are measured before applying samples. […]
(4) After the samples are applied, the coefficients of friction at applied sites are measured every thirty minutes.
(Assessment) With the coefficient of friction at measurement sites before oil treatment as 100%, smoothness was evaluated after being treated with each sample. […]

[4] = evaluation of moisture retention (amount of moisture in stratum corneum, SKICON-200EX); format: in vivo; details: inside human forearm, two hours after applying 10 μL; blank = 100%; above 100% = improvement
Procedure: [Evaluation of Moisture Retention]
With the volatile oil for external preparations for skin of the present invention, the amount of moisture in a stratum corneum was measured by the method shown below, and the amount of moisture (moisture retention) was evaluated.
(Measuring Equipment) SKICON-200EX (from I.B.S. Co., Ltd.)
(§6) (Measuring Conditions) Temperature of 20° C., Humidity of 40%
(Testing Method) Samples are applied inside a human forearm, and the amount of moisture is measured after two hours.
as §2, §5
(2) Before applying samples, the amount of moisture is measured at a site to be applied that is marked in a circle 1 cm in diameter.
(3) Samples are dropped by 10 μL with a micropipette onto a measurement site that is marked in a circle with 1 cm in diameter, and are applied to skin at the marking site.
(4) The amount of moisture is measured at the measurement site two hours after being applied.
(Assessment) With the amount of water at measurement sites with no oil treatment (blanks) as 100%, the amount of moisture was evaluated after being treated with each sample. […]

[5] = evaluation of barrier property (evaporated water quantity, Tewameter); format: in vivo; details: inside human forearm, two hours after applying 10 μL; blank = 100%; below 100% = improvement
Procedure: [Evaluation of Barrier Property]
With the volatile oil for external preparations for skin of the present invention, an evaporated water quantity in a stratum corneum was measured by the method shown below, and the evaporated water quantity (barrier property) was evaluated.
(Measuring Equipment) Tewameter™210 (from Courage+Kahazaka Co., Ltd.)
as §6
(Testing Method) Samples are applied inside a human forearm, and an evaporated water quantity is measured after two hours.
as §2, §5
(2) Before applying samples, an evaporated water quantity is measured at a site to be applied that is marked in a circle 1 cm in diameter. […]
(4) The evaporated water quantity is measured at the measurement site two hours after being applied.
(Assessment) With the evaporated water quantity at measurement sites with no oil treatment (blanks) as 100%, the evaporated water quantity was evaluated after being treated with each sample. […]

[6] = evaluation of skin viscoelasticity (Cutometer); format: in vivo; details: inside human forearm, two hours after applying 10 μL; blank = 100%; above 100% = improvement
Procedure: [Evaluation of Skin Viscoelasticity]
With the volatile oil for external preparations for skin of the present invention, skin viscoelasticity was measured by the method shown below, and the skin viscoelasticity was evaluated.
(Measuring Equipment) Cutometer (from I.B.S. Co., Ltd.)
as §6
(Testing Method) Samples are applied inside a human forearm, and viscoelasticity is measured after two hours.
as §2, §5
(2) Before applying samples, viscoelasticity is measured at a site to be applied that is marked in a circle with 1 cm in diameter.
(3) Samples are dropped by 10 μL with a micropipette onto a measurement site that is marked in a circle with 1 cm in diameter, and are applied, to skin at the marking site.
(4) The viscoelasticity is measured at the measurement site two hours after being applied.
(Assessment) With the […] at measurement sites with no oil treatment (blanks) as 100%, skin viscoelasticity was evaluated after being treated with each sample. […]

SMILES	order of volatility [1]	smoothness (%) [2]	tensile strength (%) (hair tensile strength)	smoothness (%) [3]	water quantity in stratum corneum (%) [4]	evaporated water quantity (%) [5]	skin viscoelasticity (%) [6]
C[Si]1(C)O[Si](C)(C)O[Si](C)(C)O[Si](C)(C)O[Si](C)(C)O1 [compound 1]	3	83%	120%	108%	120%	106%	95%
CC(CC(C)(C)C)CC(C)(C)C [compound 2, 2,2,4,6,6-pentamethylheptane]	1	78%	125%	104%	112%	105%	97%
